Experimental findings from patent US20250186408A1, “TREATMENT OF PHARMACORESISTANT EPILEPSY” (Katholieke Universiteit Leuven, priority 2021, published 2025) are described below.

One assay deals with CNR2 (Homo sapiens, UniProt P34972). Kind of assay: cAMP CNR2 Agonist. The conditions noted are these: for Emax: read-out: Max response.
The next assay addresses T1, CHRM2 (Homo sapiens, UniProt P08172).
T1 sequence (P08172 1-466): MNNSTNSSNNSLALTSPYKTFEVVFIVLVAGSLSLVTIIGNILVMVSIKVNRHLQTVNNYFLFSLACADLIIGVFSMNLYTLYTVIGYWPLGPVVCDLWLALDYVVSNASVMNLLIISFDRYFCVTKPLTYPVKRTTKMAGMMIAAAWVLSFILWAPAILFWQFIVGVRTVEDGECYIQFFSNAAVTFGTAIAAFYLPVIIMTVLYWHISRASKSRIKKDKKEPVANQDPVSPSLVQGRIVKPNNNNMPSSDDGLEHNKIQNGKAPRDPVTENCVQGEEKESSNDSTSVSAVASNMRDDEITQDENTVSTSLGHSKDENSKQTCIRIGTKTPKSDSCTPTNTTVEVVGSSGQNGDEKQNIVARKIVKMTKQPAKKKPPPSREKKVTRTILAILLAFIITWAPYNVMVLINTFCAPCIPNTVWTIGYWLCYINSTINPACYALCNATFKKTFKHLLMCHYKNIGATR
Put plainly: cAMP CHRM2 Agonist. The conditions noted are these: for Emax: read-out: Max response.

In the next assay the target is T2, COX2 (Homo sapiens, UniProt P35354).
T2 construct: purchased BPS Bioscience
T2 sequence (P35354 18-604): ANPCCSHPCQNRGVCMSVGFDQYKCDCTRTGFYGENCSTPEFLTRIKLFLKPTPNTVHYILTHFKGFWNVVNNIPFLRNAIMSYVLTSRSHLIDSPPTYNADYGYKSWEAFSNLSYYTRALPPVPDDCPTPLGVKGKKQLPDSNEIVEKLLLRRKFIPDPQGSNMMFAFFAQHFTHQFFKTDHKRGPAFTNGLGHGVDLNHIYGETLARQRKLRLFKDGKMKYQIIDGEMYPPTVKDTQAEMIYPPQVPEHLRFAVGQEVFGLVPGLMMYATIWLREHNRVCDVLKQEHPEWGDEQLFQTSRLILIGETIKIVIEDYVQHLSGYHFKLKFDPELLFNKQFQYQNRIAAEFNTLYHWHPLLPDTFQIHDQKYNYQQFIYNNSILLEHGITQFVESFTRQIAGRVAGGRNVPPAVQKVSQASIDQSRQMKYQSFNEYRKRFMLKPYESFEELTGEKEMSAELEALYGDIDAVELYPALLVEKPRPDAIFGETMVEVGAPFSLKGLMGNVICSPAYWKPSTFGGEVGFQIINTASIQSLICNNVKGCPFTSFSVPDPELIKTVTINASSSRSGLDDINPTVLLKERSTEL
Put plainly: Enzymatic COX2 Inhibitor. The format is biochemical. The conditions noted are these: for pIC50: read-out: RC50, result type IC50; for Emax: read-out: Max response. The method, then:
Enzyme preparations were sourced from various vendors-AChE (R&D Systems), COX1 and COX2 (BPS Bioscience), MAOA (Sigma), PDE3A and PDE4D2 (Signal Chem). AChE: enzyme and test compound were pre-incubated for 15 min at RT before substrate addition. Acetylthiocholine and DTNB were added and incubated at RT for 30 min. Signal was detected by measuring absorbance at 405 nm. COX1 and COX2: enzyme stocks were diluted in assay buffer (40 mM Tris-HCl, 1×PBS, 0.5 mM Phenol, 0.01% Tween 20 and 10 nM Hematin) and allowed to equilibrate with compounds at RT for 30 min (binding incubation). Arachidonic acid (1.7 μM) and Ampliflu Red (2.5 μM) were prepared and dispended into a reaction plate. Plates were read immediately on a fluorimeter with the emission detection at 590 nm and excitation wavelength 544 nm. MAOA: enzyme and test compound were pre-incubated for 15 min at 37° C. before substrate addition. The reaction was initiated by addition of kynuramine and incubated at 37° C. for 30 min. The reaction was terminated by addition of NaOH. The amount of 4-hydroquinoline formed was determined through spectrofluorometric readout with the emission detection at 380 nm and excitation wavelength 310 nm. PDE3A and PDE4D2: enzyme and test compound were pre-incubated for 15 min at RT before substrate addition. cAMP substrate (at a concentration equal to EC80) was added and incubated at RT for 30 min. Enzyme reaction was terminated by addition of 9 mM IBMX. Signal was detected using the HitHunter® cAMP detection kit. Microplates were transferred to a PerkinElmer Envision™ instrument and read out as described for each assay. […] For enzyme activity assays, percentage inhibition was calculated using the following equation: […]

The target in a further assay is T3, ADRA2A (Homo sapiens, UniProt P08913).
T3 sequence (P08913 1-465): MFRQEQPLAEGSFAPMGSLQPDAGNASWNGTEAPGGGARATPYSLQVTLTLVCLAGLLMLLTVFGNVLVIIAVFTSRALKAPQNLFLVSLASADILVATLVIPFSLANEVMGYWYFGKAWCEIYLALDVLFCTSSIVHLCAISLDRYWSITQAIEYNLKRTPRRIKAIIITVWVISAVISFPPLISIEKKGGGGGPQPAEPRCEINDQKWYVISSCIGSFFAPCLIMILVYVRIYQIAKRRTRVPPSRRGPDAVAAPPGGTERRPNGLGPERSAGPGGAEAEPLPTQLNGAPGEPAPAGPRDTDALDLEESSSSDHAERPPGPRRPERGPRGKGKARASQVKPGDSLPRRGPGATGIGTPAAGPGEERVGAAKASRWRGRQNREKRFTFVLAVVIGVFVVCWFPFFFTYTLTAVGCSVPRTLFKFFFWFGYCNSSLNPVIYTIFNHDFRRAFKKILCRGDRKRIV
Put plainly: cAMP ADRA2A Antagonist. Conditions: for Emax: read-out: Max response.

The next assay concerns the target T4, CHRM1 (Homo sapiens, UniProt P11229).
T4 sequence (P11229 1-460): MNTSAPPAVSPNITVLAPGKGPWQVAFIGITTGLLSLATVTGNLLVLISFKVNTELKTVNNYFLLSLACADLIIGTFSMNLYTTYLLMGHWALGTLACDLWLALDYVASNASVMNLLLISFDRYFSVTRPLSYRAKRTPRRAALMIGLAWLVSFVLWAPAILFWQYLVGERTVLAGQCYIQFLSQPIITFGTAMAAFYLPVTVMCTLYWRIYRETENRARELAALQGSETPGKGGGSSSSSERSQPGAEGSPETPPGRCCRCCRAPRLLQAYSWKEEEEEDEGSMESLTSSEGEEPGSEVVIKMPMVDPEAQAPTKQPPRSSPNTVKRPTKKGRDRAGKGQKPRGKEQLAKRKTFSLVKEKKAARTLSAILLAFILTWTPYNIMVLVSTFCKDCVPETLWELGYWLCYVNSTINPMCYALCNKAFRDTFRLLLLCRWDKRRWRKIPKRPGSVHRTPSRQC
Kind of assay: Calcium Flux CHRM1 Agonist. The conditions noted are these: for Emax: read-out: Max response. (In general: Calcium flux is commonly read through the fluorescence of an indicator in the cells.)

pEC50, pIC50: −log10 of the molar value. Like-named read-outs stand apart in the source and are kept apart here. Where only a bound is given, the exact number is not on record here.

One may read the pEC50 as the EC50 on a negative log10 scale, so that one unit is a factor of ten. As usually defined, the pIC50 is the negative decadic logarithm of the IC50, by convention in mol/L.

CNR2, sequence (P34972 whole entry): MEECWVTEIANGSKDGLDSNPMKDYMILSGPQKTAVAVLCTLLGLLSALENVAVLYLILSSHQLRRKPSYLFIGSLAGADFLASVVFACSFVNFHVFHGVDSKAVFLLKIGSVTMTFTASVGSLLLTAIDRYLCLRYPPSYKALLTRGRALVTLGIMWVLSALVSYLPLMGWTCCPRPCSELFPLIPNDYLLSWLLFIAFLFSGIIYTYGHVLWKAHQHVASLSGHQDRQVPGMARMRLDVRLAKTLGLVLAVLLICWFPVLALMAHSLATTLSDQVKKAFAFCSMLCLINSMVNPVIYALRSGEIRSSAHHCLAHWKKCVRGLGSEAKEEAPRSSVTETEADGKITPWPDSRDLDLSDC
Procedure for ADRA2A: In vitro pharmacological profiling of compounds was done against 78 functional assays for 47 common off-targets (30) by Eurofins DiscoverX Corporation (Fremont, CA, USA) using their SAFETYscan E/IC50 ELECT service (Cat Ref 87-1003DR, Safety47 Panel Dose Response). […] Compounds were tested in a range of 10 concentrations, following a 3-fold serial dilution, starting from 10 μM.
cAMP Hunter cell lines were expanded from freezer stocks. Prior to testing, cells were seeded in a total volume of 20 μL into white walled 384-well microplates and incubated at 37° C. cAMP modulation was determined using the DiscoverX HitHunter cAMP XS+ assay. For Gs agonist determination, cells were incubated with sample to induce response. For Gi agonist determination, cells were incubated with sample in the presence of EC80 forskolin to induce response. For both conditions, media was aspirated from cells and replaced with 15 μL 2:1 HBSS/10 mM HEPES:cAMP XS+ Ab reagent. Intermediate dilution of sample stocks was performed to generate 4× sample in assay buffer (containing 4×EC80 forskolin in the case of antagonist determination). 5 μL of 4× sample was added to cells and incubated at 37° C. or room temperature (RT) for 30 or 60 min. Final assay vehicle concentration was 1%. For antagonist determination, cells were pre-incubated with sample followed by agonist challenge at the EC80 concentration. Media was aspirated from cells and replaced with 10 μL 1:1 HBSS/HEPES:cAMP XS+ Ab reagent. 5 μL of 4× compound was added to the cells and incubated at 37° C. or RT for 30 min. 5 μL of 4×EC80 agonist was added to the cells and incubated at 37° C. or RT for 30 or 60 min. For Gi coupled GPCRs, EC80 forskolin was included. […] Microplates were read following signal generation with a PerkinElmer Envision™ instrument for chemiluminescent signal detection. Compound activity was analyzed using CBIS data analysis suite (ChemInnovation, CA). For Gs agonist mode assays, percentage activity was calculated using the following equation:
Procedure for CHRM1: (§1) In vitro pharmacological profiling of compounds was done against 78 functional assays for 47 common off-targets (30) by Eurofins DiscoverX Corporation (Fremont, CA, USA) using their SAFETYscan E/IC50 ELECT service (Cat Ref 87-1003DR, Safety47 Panel Dose Response). […] Compounds were tested in a range of 10 concentrations, following a 3-fold serial dilution, starting from 10 μM. The assays were performed utilizing the PathHunter enzyme fragment complementation (EFC) technology, FLIPR®-based cellular screening assays, and KINOMEscan kinase binding assays.
Prior to testing, cells (10,000 cells/well) were expanded from freezer stocks and seeded into a total volume of 50 μL into black walled, clear-bottom, Poly-D-lysine coated 384-well microplates and incubated at 37° C. […] Assays were performed in 1× dye loading buffer consisting of 1× Dye (DiscoverX, Calcium No Wash^PLUS kit, Catalog No. 90-0091), 1× Additive A and 2.5 mM Probenecid in HBSS/20 mM HEPES. Probenecid was prepared fresh. Prior to testing, media was aspirated from cells and replaced with 25 μL dye loading buffer. Cells were incubated for 45 min at 37° C. and then 20 min at RT. For agonist determination, 25 μL of 2× compound in HBSS/20 mM HEPES was added using a FLIPR Tetra (MDS). For antagonist determination, cells were pre-incubated with sample followed by agonist challenge at the EC80 concentration. 25 μL of 2× sample was added and cells were incubated for 30 min at RT in the dark to equilibrate plate temperature. After incubation, antagonist determination was initiated by addition of 25 μL of 1× compound with 3×EC80 agonist using FLIPR. For both agonist and antagonist formats, activity was measure on a FLIPR Tetra (MDS). Calcium mobilization was monitored for 2 min with a 5 sec baseline read.
FLIPR read—Area under the curve, was calculated for the entire 2 min read. Compound activity was analysed using CBIS data analysis suite (ChemInnovation, CA).
Procedure for CHRM2: as §1
(§2) cAMP Hunter cell lines were expanded from freezer stocks. Prior to testing, cells were seeded in a total volume of 20 μL into white walled 384-well microplates and incubated at 37° C. cAMP modulation was determined using the DiscoverX HitHunter cAMP XS+ assay. For Gs agonist determination, cells were incubated with sample to induce response. For Gi agonist determination, cells were incubated with sample in the presence of EC80 forskolin to induce response. For both conditions, media was aspirated from cells and replaced with 15 μL 2:1 HBSS/10 mM HEPES:cAMP XS+ Ab reagent. Intermediate dilution of sample stocks was performed to generate 4× sample in assay buffer (containing 4×EC80 forskolin in the case of antagonist determination). 5 μL of 4× sample was added to cells and incubated at 37° C. or room temperature (RT) for 30 or 60 min. Final assay vehicle concentration was 1%. For antagonist determination, cells were pre-incubated with sample followed by agonist challenge at the EC80 concentration. Media was aspirated from cells and replaced with 10 μL 1:1 HBSS/HEPES:cAMP XS+ Ab reagent. 5 μL of 4× compound was added to the cells and incubated at 37° C. or RT for 30 min. 5 μL of 4×EC80 agonist was added to the cells and incubated at 37° C. or RT for 30 or 60 min. For Gi coupled GPCRs, EC80 forskolin was included. […] Microplates were read following signal generation with a PerkinElmer Envision™ instrument for chemiluminescent signal detection. Compound activity was analyzed using CBIS data analysis suite (ChemInnovation, CA).
Procedure for CNR2: as §1, §2

As to `CC(C)(C)c1ccc(C#CC(O)c2ccccc2)cc1` (racemic) [Compound 3.3, rac-3-(4-(tert-butyl)phenyl)-1-phenylprop-2-yn-1-ol], the pEC50 on CNR2, at CHRM2 and at CHRM1 was less than 5.00 throughout. The Emax is 38.1% at CNR2; 0% at CHRM2; 0% at COX2; 13% at ADRA2A; 1.8% on CHRM1. For the same compound, the pIC50 on COX2 (Enzymatic COX2 Inhibitor) and against ADRA2A was less than 5.00 throughout.

Regarding `Clc1cccc(C#Cc2n[nH]c3ncccc23)c1` [Compound 10.1, 3-((3-chlorophenyl)ethynyl)-1H-pyrazolo[3,4-b]pyridine], the pEC50 on CNR2, on CHRM2 and on CHRM1 was less than 5.00 each time. For the same compound, the Emax on CNR2 stood at 49.3%; at CHRM2, 32.5%; on COX2 (Enzymatic COX2 Inhibitor), 0%; at ADRA2A, 0%; on CHRM1, 1.8%. The pIC50 at COX2 (Enzymatic COX2 Inhibitor) and against ADRA2A was less than 5.00 each time.
